Source: patent US4521428A, “Anorexigenic trifluoromethylphenyltetrahydropyridines and pharmaceutical compositions containing them” (Sanofi, priority 1982, dated 1985)
Where two headings read alike, the source gives them in different places.

Assays:
[1] = system: cerebral serotonin; test: cerebral rates of serotonin compared to controls, according to Curzon and Green; type: in vivo; conditions: for cerebral rates of serotonin, % compared to controls: two hours after administration
Text: Table II hereinbelow summarizes the percent cerebral rates of serotonin, compared to the controls, after intraperitoneal or oral administration of four representative compounds of the present invention. The determination of the cerebral rates, according to Curzon and Green (Br. J. Pharmacol. 1970, 39, 653) was made two hours after the administration. Fenfluramine was used as reference compound.

[2] = acute toxicity in the rat (LD50) by the oral or intraperitoneal route; conditions: in vivo; for selectivity ratio: read-out: A/B (LD50/ID50, therapeutic index)
Text: the acute toxicity, expressed as LD50 in the rat by the oral or intraperitoneal route (A);
the ratio between the acute toxicity and the anorectic activity which expresses the therapeutic index related to the acute toxicity (A/B).

[3] = system: food intake (female rats); test: anorectic activity by the food intake method in the rat; type: in vivo; conditions: food taken in first hour, read-out: ID50 (dose inhibiting by 50% the food intake)
Experimental: The anorectic activity was assessed by the food intake method in the rat. Female rats weighing 200 g are used, which were trained for 10 days to eat during a period of 4 hours and selected on the eighth day. At the end of the tenth day, the randomised animals were divided into a "control group" treated with the vehicle alone, and into several "treated groups". The treatment was effected by intraperitoneal or by oral route 30 minutes or 1 hour, respectively, before the presentation of the food and the amount of food taken in the course of the first hour was then measured.
the anorectic activity, expressed as oral or intraperitoneal dose inhibiting by 50% the food intake (ID50, B);

[4] = system: cerebral noradrenaline; conditions: cited from earlier work
[5] = system: central nervous system; conditions: in vivo; cited from earlier work
[6] = system: serotonin release; conditions: central neurons; cited from earlier work
[7] = system: cerebral serotonin; conditions: doses very close to the anorectic dose; Arch. Intern. Pharmacodyn. Ther. 1967; cited from earlier work
[8] = ip, 1 h, i.p., 30 minutes before food

Row | Compound | selectivity ratio ([2]; os) | LD50 ([2]; po, os) | ED50 ([3]; po, os, 1 hour before food) | also measured
1 | Cc1cccc(CCN2CC=C(c3cccc(C(F)(F)F)c3)CC2)n1.Cl [Example 4, 1-[2-(6-methyl-2-pyridyl)ethyl]-4-(3-trifluoromethylphenyl)-1,2,3,6-tetrahydropyridine hydrochloride] | 35.6 | 202 mg/kg | 5.69 mg/kg | cerebral rates of serotonin, % compared to controls ([1]; os, 5.69 mg/kg): 119 ± 6%
2 | CC(N)Cc1ccccc1 (stereo not drawn) [amphetamine] |  |  |  | noradrenaline release mediating anorexia (background) [4]: seems to be mediated by the release of cerebral noradrenaline
3 | Cl.FC(F)(F)c1cccc(C2=CCN(CCc3ccccn3)CC2)c1 [Example 1, 1-[2-(2-pyridyl)ethyl]-4-(3-trifluoromethylphenyl)-1,2,3,6-tetrahydropyridine hydrochloride] | 56 | 195 mg/kg | 3.49 mg/kg | cerebral rates of serotonin, % compared to controls ([1]; i.p., 1.625 mg/kg): 93 ± 7%; cerebral rates of serotonin, % compared to controls ([1]; i.p., 3.25 mg/kg): 85 ± 1%; cerebral rates of serotonin, % compared to controls ([1]; i.p., 7.5 mg/kg, °° P < 0.01): 98 ± 10%; LD50 ([2]; ip): 108 mg/kg; selectivity ratio ([2]; ip): 54.2; ED50 [3, 8]: 1.99 mg/kg
4 | Cl.FC(F)(F)c1cccc(C2=CCN(CCc3ccncc3)CC2)c1 [Example 3, 1-[2-(4-pyridyl)ethyl]-4-(3-trifluoromethylphenyl)-1,2,3,6-tetrahydropyridine hydrochloride] | 49.6 | 289 mg/kg | 5.82 mg/kg | 
5 | Cl.[O-][n+]1ccc(CCN2CC=C(c3cccc(C(F)(F)F)c3)CC2)cc1 [Example 5, 4-[2-[4-(3-trifluoromethylphenyl)-1,2,3,6-tetrahydropyrid-1-yl]ethyl]pyridine 1-oxide hydrochloride] | ~176 | ~300 mg/kg | 1.71 mg/kg | 
6 | Cl.FC(F)(F)c1cccc(C2=CCN(CCc3ccc4ccccc4c3)CC2)c1 [Example 7, 1-[2-(2-naphthyl)ethyl]-4-(3-trifluoromethylphenyl)-1,2,3,6-tetrahydropyridine hydrochloride] | > 76.6 | > 800 mg/kg | 10.4 mg/kg | 
7 | Cl.FC(F)(F)c1cccc(C2=CCN(CCc3cccc4ccccc34)CC2)c1 [Example 6, 1-[2-(1-naphthyl)ethyl]-4-(3-trifluoromethylphenyl)-1,2,3,6-tetrahydropyridine hydrochloride] | > 126 | > 600 mg/kg | 4.75 mg/kg | 
8 | CCNC(C)Cc1cccc(C(F)(F)F)c1 (stereo not drawn) [Fenfluramine, reference compound] |  | 231 mg/kg | 2.51 mg/kg | anorectic activity (background) [5]: excellent anorectic activity; sedative/stimulant action (background) [5]: some sedative action; cerebral serotonin depletion/reduction ([1]; in vivo): significant reduction of the cerebral serotonin; serotonin release (background) [6]: release of the endogenous serotonin of the central neurons; LD50 ([2]; ip): 102 mg/kg; ED50 [3, 8]: 1.58 mg/kg; cerebral rates of serotonin (background) [7]: significant reduction in the cerebral rates of serotonin
9 | Cl.FC(F)(F)c1cccc(C2=CCN(CCc3cccnc3)CC2)c1 [Example 2, 1-[2-(3-pyridyl)ethyl]-4-(3-trifluoromethylphenyl)-1,2,3,6-tetrahydropyridine hydrochloride] | 128 | 227 mg/kg | 1.77 mg/kg | cerebral rates of serotonin, % compared to controls ([1]; os, 2.0 mg/kg): 113 ± 5%
